Results published in PMC7179399, “Development and Characterization of the Shortest Anti-Adhesion Peptide Analogue of B49Mod1” (Molecules, 2020).
Ends that are not written are not given here.

How the values were obtained:
Conditions in all cases: 24 h
[1] = test system: MCF7; type: cell-based, human
Experimental: (§1) Viability Assay: Equivalent numbers of cells from each cell line was seeded in 96-well plate and incubated at 37 °C for 24 hours before treatment. The cells were treated with different concentration of peptides and incubated for 24 hours at 37 °C. 20 µl of 5mg/ml of MTT reagent was added to each well and incubated for 4 hours at 37 °C. The supernatant was then removed, followed by addition of 150 µl of MTT solvent, with shaking 15 min at room temperature. Absorbance at 590 nm was then measured through the BioTek Synergy H1 microplate reader.

[2] = test system: SKBR3; type: cell-based, human
Experimental: as §1

[3] = test system: human peripheral blood mononuclear cells (PBMCs); assay: MTT viability assay, PBMCs; type: cell-based
Text: Cell Lines: MDA-MB-468, MDA-MB-231, ZR-75-1, MCF7, and T47D were obtained from the Physical Sciences-Oncology Network (PS-ON) Bioresource Core Facility (PBCF) at American Type Culture Collection (ATCC, Manassas, VA, USA). SKBR3 cell line was a kind gift from Dr. Hyungjin Kim at Stony Brook University. ZR-75-1, MCF7, and T47D were maintained in complete RPMI 1640 media. MDA-MB-468, MDA-MB-231, and SKBR3 were maintained in complete DMEM media. Both complete RPMI and DMEM were supplemented with 10% FBS, 1% penicillin-streptomycin, 1 µg/mL Amphotericin B, 1% of l-glutamine, 2 mM sodium pyruvate, and 10 mM HEPES buffer at pH 8. Human Peripheral Blood Mononuclear Cells (PBMCs) were isolated from fresh human blood by Ficoll-Paque PLUS and cultured in complete RPMI 1640 media.
as §1

GFQDVEAQAATCNHTVMA [B18] was tested, and the IC50 [1] was 59.8 ± 5.3 µM, the IC50 [2] was 11.2 ± 3.4 µM and the “cytotoxic effect on quiescent PBMCs” value [3] was “no cytotoxic effect was observed”.
